Our source for the GI50 and EC values is ChEMBL document CHEMBL3352739, “Comparative in vivo evaluation of polyalkoxy substituted 4H-chromenes and oxa-podophyllotoxins as microtubule destabilizing agents in the phenotypic sea urchin embryo assay” (2014).

The subject of one assay is T47D. The assay is described as follows: Growth inhibition of human T47D cells after 48 hrs by sulforhodamine B assay. In kind it is functional.
Assay [1] deals with Paracentrotus lividus. The assay can be described thus: Antimitotic microtubule destabilizing activity in Paracentrotus lividus L embryos assessed as induction of cleavage alteration.
In a further assay the test system is ZR-75-1. The assay can be described thus: Growth inhibition of human ZR-75-1 cells after 48 hrs by sulforhodamine B assay. Format: functional. The note with it: ZR-75-1, 48 h.
Assay [2] deals with Paracentrotus lividus. The assay can be described thus: Antimitotic microtubule destabilizing activity in Paracentrotus lividus L embryos assessed as induction of embryo spinning.
For assay [3], the system named is Paracentrotus lividus. The assay can be described thus: Antimitotic microtubule destabilizing activity in Paracentrotus lividus L embryos assessed as induction of cleavage arrest.
A short description of assay [4]: Growth inhibition of human H1299 cells after 48 hrs by sulforhodamine B assay. Format: functional. The note with it: NCI-H1299, 48 h.

For `COc1cc(OC)cc(C2C(C#N)=C(N)Oc3cc(OC)ccc32)c1` (stereo unspecified), the results for the GI50 (in the assay with T47D; in the assay with ZR-75-1; in assay [4]) were 14 nM, 9 nM and 32 nM, respectively. The EC is 0.0005 µM in the assay on Paracentrotus lividus [1], 0.02 µM with Paracentrotus lividus [2] and 0.005 µM in the assay on Paracentrotus lividus [3].
